One may read the EC50 as the concentration at which the effect is half-maximal.

Active and inactive are the calls of the source.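 The calls were made as follows: active = growth-inhibition EC50 no more than tenfold above the top tested dose; inconclusive = flat fit between 30% and 70% inhibition, or unreliable fit; inactive = EC50 more than tenfold above the top tested dose.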 Some results are limits rather than exact numbers.

This assay concerns E. coli NEB5alpha growth, BacTiter-Glo luminescence, 4 h. As to the kind of experiment: Escherichia coli growth inhibition, dose response, counter-screen for MEX-5/POS-1 RNA-binding inhibitor project, luminescence, NEB5alpha (AID 1959;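 also: pUC19-transformed ampicillin-resistant cells grown in LB with ampicillin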). (In general: Counterscreens check selectivity or assay interference.)
For the molecule `CCCN1CCc2cccc3c2[C@H]1Cc1ccc(O)c(O)c1-3`, the EC50 was > 11 µM (inactive). Under `O=C1CSC(=S)N1/N=C/c1ccc(O)c(O)c1O` stands > 11 µM (inactive). As for `Cc1sc(/C=C2\C(=O)ON=C2c2ccccc2)cc1Br`, the figure is > 11 µM (inactive); as for `O=C(N/N=C/c1cccnc1)c1cc(O)c(O)c(O)c1`, > 11 µM (inactive); as for `CCOC(=O)c1ccc(-n2c(C)ccc2C)cc1`, > 11 µM (inactive). Under `CC(=O)c1c(O)cc(O)cc1CC(=O)O` stands > 11 µM (inactive); under `Cc1cc(/C=C2\C(=O)NC(=O)N(c3ccc(Br)cc3)C2=O)c(C)n1C`, > 11 µM (inactive); under `CCCCOC(=O)CSC1=C(C#N)C(c2ccccc2OCC)C(C#N)C(=O)N1` (stereo not given), > 11 µM (inactive). Turning to `Cc1c(NC(=O)c2coc(=O)c(Br)c2)c(=O)n(-c2ccccc2)n1C`, the EC50 is > 11 µM (inactive). As for `COC(=O)CCCC1=CC2=CC(=O)C(C)(OC(=O)c3ccc(Cl)nc3)C(=O)C2=CO1` (stereo not given), the figure is > 11 µM (inactive); as for `Nc1c(C(=O)c2ccc(Br)s2)oc2ccccc12`, > 11 µM (inactive); as for `CC1=Nc2ccc(C)cc2/C1=C/c1c(N)n2nc(CC(=O)N3CCOCC3)sc2nc1=O`, > 11 µM (inactive). As for `COc1ccc(C2C(C(=O)c3ccco3)=C(O)C(=O)N2c2nnc(C)s2)cc1OC` (stereo not given), the figure is > 11 µM (inactive); as for `Cc1cc2c3c(c1)C1(C(=O)N3C(C)(C)CC2C)C(C#N)=C(N)OC2=C1C(=O)CC(C)(C)C2` (stereo not given), > 11 µM (inactive). Under `CN1C(=O)C(=Cc2sc(=O)n(-c3ccccc3)c2N2CCCCC2)C(=O)N(C)C1=O` stands > 11 µM (inactive); under `Cn1c(O)c(/C=C2\C=Nc3ccccc32)c(=O)n(C)c1=O`, > 11 µM (inactive). Regarding `CCOc1ccc2nc3cc(NCc4ccc(OC)cc4)ccc3c(N)c2c1`, the EC50 is > 11 µM (inactive).

For the molecule `CCOC(=O)C(C(=O)OCC)c1cc(Br)c2noc3c2c1C(=O)c1ccccc1-3`, the EC50 was > 11 µM (inactive).

In the case of `CCN(CC)c1ccc(/C=C(/C#N)c2nc3ccccc3[nH]2)c(OC(C)C)c1`, the EC50 was > 11 µM (inactive). For the molecule `CC1(OC(=O)c2ccco2)C(=O)C=C2C=C(c3ccsc3)OC=C2C1=O` (stereo not given), the EC50 was > 11 µM (inactive). As for `NC(=Nc1ccc(N)cc1)C(N)=Nc1ccc(N)cc1`, the figure is > 11 µM (inactive); as for `CCOc1ccc(N2C(=O)S/C(=C\c3cccn3C)C2=O)cc1`, > 11 µM (inactive); as for `Nc1c(C(=O)Nc2nc3ccccc3s2)sc2nc(-c3cccs3)ccc12`, > 11 µM (inactive).

With `CCCCCN1C=CC=C/C1=C\C=C(C#N)C#N`, the EC50 was > 11 µM (inactive).

Turning to `COC(=O)CNC(=O)C1Nc2ccc(OC(F)(F)F)cc2C2C=CCC12` (stereo not given), the EC50 is > 11 µM (inactive). `CCCCN1C(=O)/C(=C2/Sc3ccc(OC)cc3N2CC)SC1=S`: the EC50 is > 11 µM (inactive). As for `COC(=O)c1ccccc1-n1cccc1C(=O)NP(=O)(N1CCOCC1)N1CCOCC1`, the figure is > 11 µM (inactive); as for `CCOc1cc(C(c2c(C)[nH][nH]c2=O)c2c(C)[nH][nH]c2=O)cc([N+](=O)[O-])c1O`, > 11 µM (inactive); as for `Oc1ccc(-c2cn3ccccc3n2)cc1O`, > 11 µM (inactive). As for `COc1ccc(-c2nnc(-c3cc4c(ccc5ccccc54)oc3=O)o2)cc1`, the figure is > 11 µM (inactive); as for `CC(=O)Nc1ccc(S(=O)(=O)NCc2nc(-c3cccc(C)c3)no2)cc1`, > 11 µM (inactive); as for `COC(=O)c1ccccc1-n1c(CCC(=O)O)ccc1-c1ccccc1`, > 11 µM (inactive). Take `CCC(=NCCCN(C)C)c1c(O)n(-c2ccc(OC)cc2)c(=O)[nH]c1=O`: the EC50 was > 11 µM (inactive).

Turning to `Cc1ccc(/C=C2\C(=O)NC(=O)N(CC3CCCO3)C2=O)s1` (stereo not given), the EC50 is > 11 µM (inactive). Under `CC(C)(C)OC(=O)NCCCC1=CC2=CC(=O)C(C)(OC(=O)c3ccc(Cl)nc3)C(=O)C2=CO1` (stereo not given) stands > 11 µM (inactive); under `C=CCOc1cccc(C2C(C(=O)c3ccc(C)o3)=C(O)C(=O)N2c2nccs2)c1` (stereo not given), > 11 µM (inactive); under `Cc1ccc(S(=O)(=O)C(C#N)c2nc3ccccc3nc2N2CCC(C)CC2)cc1` (stereo not given), > 11 µM (inactive). As for `O=S(=O)(Nc1cc(Sc2cccc3cccnc23)c(O)c2ccccc12)c1ccc(F)cc1`, the figure is > 11 µM (inactive); as for `O=C(NNC(=O)c1ccccc1O)c1ccco1`, > 11 µM (inactive).

For the molecule `O=C(NNC(=O)c1ccccc1[N+](=O)[O-])c1csc(N2CCOCC2)n1`, the EC50 is > 11 µM (inactive).

Turning to `CCOc1cc(/C=C2\C(=N)N3N=C(S(C)(=O)=O)SC3=NC2=O)ccc1OCCOc1cccc(OC)c1`, the EC50 was > 11 µM (inactive).

Consider `Cc1nc2c3ccccc3nc(NNC(=O)CCC(=O)N3CCCC(C)C3)n2n1` (stereo not given), for which the EC50 was > 11 µM (inactive). Under `CCn1c(/C=C/c2c(C)[nH]c3ccccc23)nc2ccccc2c1=O` stands > 11 µM (inactive). Under `O=C(NNC(=O)c1ccccc1O)c1ccc(S(=O)(=O)Nc2ccccc2F)cc1` stands > 11 µM (inactive). As for `COc1ccc(/C=C/c2cc(C(F)(F)F)[nH]c(=O)n2)cc1OC`, the figure is > 11 µM (inactive); as for `CCN1C(=O)/C(=C/c2c(C)nn(C)c2C)SC1=S`, > 11 µM (inactive). On to `CCCCOc1cccc(C2C(C(=O)c3ccc(C)o3)=C(O)C(=O)N2c2nnc(C)s2)c1` (stereo not given), for which the EC50 was > 11 µM (inactive). As for `Cc1cccc(C(=O)NCCCNC(=O)c2cccc(C)c2)c1`, the figure is > 11 µM (inactive); as for `CC(NC(=O)COc1ccccc1)C(=O)OCC(=O)c1cc2ccccc2o1` (stereo not given), > 11 µM (inactive); as for `Cc1cc(C(=O)O)ccc1-n1c(C)cc(/C=C2\SC(=O)NC2=O)c1C`, > 11 µM (inactive). On to `COCCn1c(=N)c(S(=O)(=O)c2ccc(Br)cc2)cc2c(=O)n3ccccc3nc21`, for which the EC50 was > 11 µM (inactive). Under `COc1ccc(C2C(C#N)=C(N)OC3=C2C(=O)CC(C)(C)C3)cc1Cn1nc(C)c([N+](=O)[O-])c1C` (stereo not given) stands > 11 µM (inactive). As for `Cc1cc(/C=N/n2cnnc2)c(C)n1-c1cccc(C(=O)O)c1`, the figure is > 11 µM (inactive); as for `COCCCNC(=O)CCC(=O)NNc1nc2ccccc2c2nc(C)nn12`, > 11 µM (inactive). As for `CN1C(=O)C(=Cc2cn(CC(=O)N3CCCC3)c3ccccc23)C(=O)N(C)C1=O`, the figure is > 11 µM (inactive); as for `COc1ccc2c(c1)C1C=CCC1C(c1cc3c(cc1Br)OCO3)N2` (stereo not given), > 11 µM (inactive). For the molecule `COC(=O)C1CSc2[nH]c(=O)sc2C1c1ccccc1` (stereo not given), the EC50 is > 11 µM (inactive). `COC(=O)Cn1cc(C=C2C(=O)NC(=O)NC2=O)c2ccccc21`: the EC50 is > 11 µM (inactive). `CCN1/C(=C2/SC(=S)N(NC(C)=O)C2=O)Sc2ccc(OC)cc21`: the EC50 was > 11 µM (inactive).

Regarding `COC(=O)Cn1cc(/C=C2\C(=O)NC(=O)N(c3ccc(OC)cc3)C2=O)c2ccccc21`, the EC50 was > 11 µM (inactive).

Turning to `COCc1cc(=O)n2[nH]c(-c3cccs3)cc2n1`, the EC50 is > 11 µM (inactive). As for `O=C(O)c1cc(Cl)c2c(c1)[C@@H]1C=CC[C@@H]1[C@H](c1ccc(S(=O)(=O)N3CCOCC3)cc1)N2`, the figure is > 11 µM (inactive). In the case of `Cc1ccc(CNC(=O)/C(C#N)=C\c2ccc(N(C)C)cc2)cc1`, the EC50 is > 11 µM (inactive). As for `COc1cc(/C=C2/N=C(c3ccccc3)OC2=O)c(F)cc1OCc1ccccc1`, the figure is > 11 µM (inactive); as for `O=c1[nH]c(=O)n(CCc2ccccc2)c(O)c1C=NCCCn1ccnc1`, > 11 µM (inactive).

With `COc1ccc(P2(=O)Nc3ccccc3N2)cc1`, the EC50 is > 11 µM (inactive). Under `CCC1=NN2C(=N)/C(=C\c3ccc(SCc4ccco4)o3)C(=O)N=C2S1` stands > 11 µM (inactive). With `O=C1c2ccccc2S(=O)(=O)c2cc(N3CCC(C(=O)N4CCCCC4)CC3)ccc21`, the EC50 is > 11 µM (inactive). Under `Oc1ccc(/C=N/N2CCCCC2)c(O)c1O` stands > 11 µM (inactive). Under `Cc1cc(O)c(C(C)C)cc1N=C1CSC(=O)N1` stands > 11 µM (inactive); under `Cc1cccc(C)c1NC(=O)NN=C1CCCCC1`, > 11 µM (inactive).

With `CN1C(=O)C(=Cc2ccccc2OS(=O)(=O)c2ccccc2)C(=O)N(C)C1=O`, the EC50 was > 11 µM (inactive).

On to `O=C(O)C1Nc2c(cccc2C(F)(F)F)C2C=CCC12` (stereo not given), for which the EC50 was > 11 µM (inactive).

Take `CC(=O)C1=C(c2ccccc2)N(C(C)=O)n2c(C)nnc2S1`: the EC50 is > 11 µM (inactive). As for `Clc1ccc(C2=CC(c3ccco3)n3ncnc3N2)cc1` (stereo not given), the figure is > 11 µM (inactive); as for `O=[N+]([O-])c1cccc(/C=C/c2nc(C=Nc3ccccc3)c(O)o2)c1`, > 11 µM (inactive).

Regarding `CCn1cc(C(=O)NCc2ccccn2)c(=O)c2cc(S(=O)(=O)N3CCCCC3)ccc21`, the EC50 is > 11 µM (inactive). Under `COC(=O)c1cc(C(=O)OC)cc(-n2c(C)cc(C(=O)CC#N)c2C)c1` stands > 11 µM (inactive); under `N#CC1=C(N)C(C#N)(C#N)C(c2cccnc2)C2COCC=C12` (stereo not given), > 11 µM (inactive).

`O=C(O)c1cccc(-n2cccc2/C=C2/NC(=O)N(Cc3ccccc3F)C2=O)c1`: the EC50 is > 11 µM (inactive). As for `COC(=O)CCCC1=CC2=CC(=O)C(C)(O)C(=O)C2=CO1` (stereo not given), the figure is > 11 µM (inactive); as for `COc1cccc2c1NC(C(=O)O)C1CC=CC21` (stereo not given), > 11 µM (inactive). Under `O=C(O)C(=O)/C(=C\c1ccsc1)c1ccc2ccccc2n1` stands > 11 µM (inactive); under `Cc1ccc(NC(=O)CSc2nccc(=O)[nH]2)c(S(=O)(=O)N2CCOCC2)c1`, > 11 µM (inactive).

Regarding `COC(=O)c1c(Cl)c2n3ccccc3c(C)c(-c3ccccc3)c-2c1C(=O)OC`, the EC50 is > 11 µM (inactive).

Source of the values: PubChem BioAssay AID1959 (Broad Institute, 2009).
